Reference: patent publication US20190343860A1 (Saint Louis University, priority 2016, published 2019)

Legend:
[1] = system: intraepidermal nerve fibers (IENFs); test: Incidence of intraepidermal nerve fibers (IENFs) in chemotherapy-treated rats; details: p<0.05
[2] = Oxaliplatin-induced mechano-hypersensitivity (paw withdrawal threshold, von Frey); assay type: in vivo, rat; details: 0.1 mg/kg/d i.p. concomitant with oxaliplatin
Text: Mean±SEM, n=6/group, ANOVA with Bonferroni comparisons. *P<0.05 vs. day 0; #P<0.05 vs. vehicle &†P<0.05 vs. Oxaliplatin.

[3] = system: mitochondria in peripheral sensory afferents (PNSAs); test: Mitochondrial ATP production in peripheral sensory afferents after in vivo treatment; parameters: species or system rat; details: 0.1 mg/kg/d i.p. concomitant with oxaliplatin
Experimental: ATP assays. Saphenous nerves were harvested from rats 25 days after the initiation of chemotherapy treatments, then minced & teased apart as previously described. Saphenous nerve explants were transferred to MiR05 respiratory buffer & baseline ATP samples were taken after 5 min or after 15 min treatment with MRS5980 or vehicle. ADP (1 mM), glutamate (5 mM), succinate (5 mM), maleate (5 mM) were added for 5 min & samples were taken for ATP. ATP levels were measured by a flash luciferin-luciferase assay (Promega Enliten ATP Assay; Promega, Madison, Wis.) & normalized to citrate synthase activity (Sigma, St Louis, Mo.) in explants homogenates.

[4] = system: intraepidermal nerve fibers (IENFs); details: rat, in vivo

CNC(=O)[C@@]12C[C@@H]1[C@@H](n1cnc3c(NCc4cccc(Cl)c4)nc(C#Cc4ccc(F)c(F)c4)nc31)[C@H](O)[C@@H]2O [MRS5698]
Incidence of IENFs vs. oxaliplatin alone ([1]; rats treated with oxaliplatin+MRS5698): significantly more IENFs | Incidence of IENFs vs. paclitaxel alone ([1]; rats treated with paclitaxel+MRS5698): significantly more IENFs | Development of mechano-hypersensitivity (Paw Withdrawal Threshold) [2]: prevents | Mitochondrial ATP production in PNSAs [3]: prevents the deficiencies in mitochondrial ATP production

CC(=O)O[C@H]1C(=O)[C@@]2(C)[C@H]([C@H](OC(=O)c3ccccc3)[C@]3(O)C[C@H](OC(=O)[C@H](O)[C@@H](NC(=O)c4ccccc4)c4ccccc4)C(C)=C1C3(C)C)[C@]1(OC(C)=O)CO[C@@H]1C[C@@H]2O [paclitaxel]
Incidence of IENFs vs. Naive rats [4]: statistically significantly fewer IENFs
